Data as given in ChEMBL document CHEMBL4507310, “Data for DCP probe A-1211212” (2021).

What was measured:
NCI-H146 = experiment: CellTiter-Glo Luminescent Cell Viability Assay (BCL-XL dependent cell line H146); type: functional, cell-based; conditions: Homo sapiens
[1] = biological target: Beta-2 adrenergic receptor (Homo sapiens) (UniProt P07550); experiment: Beta2 (h) Eurofins-Cerep binding assay; parameters: ligand concentration 0.3 nM; conditions: filed as antagonist, Compound concentration 10.0 uM
[2] = biological target: Translocator protein (Rattus norvegicus) (UniProt P16257); experiment: BZD (peripheral) Eurofins-Cerep binding assay; parameters: ligand concentration 0.2 nM; conditions: filed as antagonist, Compound concentration 10.0 uM
[3] = biological target: Calcitonin-gene-related peptide receptor, CALCRL/RAMP1 (Homo sapiens) (UniProt O60894+Q16602); experiment: CGRP (h) Eurofins-Cerep binding assay; type: protein-complex assay; parameters: ligand concentration 0.03 nM; conditions: filed as agonist, Compound concentration 10.0 uM
[4] = biological target: Glutamate NMDA receptor (Rattus norvegicus) (UniProt P35439+Q00959+Q00960+Q00961+Q62645+Q8VHN2+Q9R1M7); experiment: NMDA Eurofins-Cerep binding assay; type: protein-complex assay; parameters: ligand concentration 5 nM; conditions: filed as antagonist, Compound concentration 10.0 uM
[5] = biological target: Histamine H1 receptor (Homo sapiens) (UniProt P35367); experiment: H1 (h) Eurofins-Cerep binding assay; parameters: ligand concentration 1 nM; conditions: filed as antagonist, Compound concentration 10.0 uM
[6] = biological target: Prostaglandin E2 receptor EP2 subtype (Homo sapiens) (UniProt P43116); experiment: EP2 (h) Eurofins-Cerep binding assay; parameters: ligand concentration 3 nM; conditions: filed as agonist, Compound concentration 10.0 uM
[7] = biological target: 5-hydroxytryptamine receptor 1B (Homo sapiens) (UniProt P28222); experiment: 5-HT1B(h) Eurofins-Cerep binding assay; parameters: ligand concentration 1 nM; conditions: filed as antagonist, Compound concentration 10.0 uM
[8] = biological target: Sodium- and chloride-dependent GABA transporter 1 (Rattus norvegicus) (UniProt P23978); experiment: GABA transporter Eurofins-Cerep binding assay; parameters: ligand concentration 10 nM; conditions: filed as antagonist, Compound concentration 10.0 uM
[9] = tested on: Tyrosine-protein kinase ABL1 (Homo sapiens), P00519 [F317L]; conditions: Compound concentration 1000.0 nM
[10] = tested on: Tyrosine-protein kinase ABL1 (Homo sapiens), P00519 [H396P]; conditions: Compound concentration 1000.0 nM
[11] = biological target: ALK tyrosine kinase receptor (Homo sapiens) (UniProt Q9UM73); conditions: Compound concentration 1000.0 nM
[12] = biological target: Calcium/calmodulin-dependent protein kinase type II subunit alpha (Homo sapiens) (UniProt Q9UQM7); conditions: Compound concentration 1000.0 nM
[13] = biological target: Cyclin-dependent kinase-like 1 (Homo sapiens) (UniProt Q00532); conditions: Compound concentration 1000.0 nM
[14] = biological target: Dual specificity protein kinase CLK3 (Homo sapiens) (UniProt P49761); conditions: Compound concentration 1000.0 nM
[15] = biological target: Casein kinase I isoform gamma-3 (Homo sapiens) (UniProt Q9Y6M4); conditions: Compound concentration 1000.0 nM
[16] = biological target: Serine/threonine-protein kinase DCLK3 (Homo sapiens) (UniProt Q9C098); conditions: Compound concentration 1000.0 nM
[17] = tested on: Epidermal growth factor receptor (Homo sapiens), P00533 [UNDEFINED MUTATION]; conditions: Compound concentration 1000.0 nM
[18] = biological target: Ephrin type-A receptor 8 (Homo sapiens) (UniProt P29322); conditions: Compound concentration 1000.0 nM
[19] = tested on: Receptor-type tyrosine-protein kinase FLT3 (Homo sapiens), P36888 [R834Q]; conditions: Compound concentration 1000.0 nM
[20] = biological target: Mitogen-activated protein kinase kinase kinase kinase 1 (Homo sapiens) (UniProt Q92918); conditions: Compound concentration 1000.0 nM
[21] = biological target: Serine/threonine-protein kinase ICK (Homo sapiens) (UniProt Q9UPZ9); conditions: Compound concentration 1000.0 nM
[22] = biological target: Insulin receptor (Homo sapiens) (UniProt P06213); conditions: Compound concentration 1000.0 nM
[23] = biological target: Mitogen-activated protein kinase 8 (Homo sapiens) (UniProt P45983); conditions: Compound concentration 1000.0 nM
[24] = biological target: Mitogen-activated protein kinase kinase kinase 2 (Homo sapiens) (UniProt Q9Y2U5); conditions: Compound concentration 1000.0 nM
[25] = biological target: MAP/microtubule affinity-regulating kinase 4 (Homo sapiens) (UniProt Q96L34); conditions: Compound concentration 1000.0 nM
[26] = biological target: Microtubule-associated serine/threonine-protein kinase 1 (Homo sapiens) (UniProt Q9Y2H9); conditions: Compound concentration 1000.0 nM
[27] = biological target: Dual specificity mitogen-activated protein kinase kinase 5 (Homo sapiens) (UniProt Q13163); conditions: Compound concentration 1000.0 nM
[28] = biological target: Serine/threonine-protein kinase MRCK alpha (Homo sapiens) (UniProt Q5VT25); conditions: Compound concentration 1000.0 nM
[29] = biological target: Serine/threonine-protein kinase NLK (Homo sapiens) (UniProt Q9UBE8); conditions: Compound concentration 1000.0 nM
[30] = biological target: 3-phosphoinositide-dependent protein kinase 1 (Homo sapiens) (UniProt O15530); conditions: Compound concentration 1000.0 nM
[31] = biological target: Phosphatidylinositol 5-phosphate 4-kinase type-2 gamma (Homo sapiens) (UniProt Q8TBX8); conditions: Compound concentration 1000.0 nM
[32] = biological target: cGMP-dependent protein kinase 2 (Homo sapiens) (UniProt Q13237); conditions: Compound concentration 1000.0 nM
[33] = biological target: Serine/threonine-protein kinase SIK3 (Homo sapiens) (UniProt Q9Y2K2); conditions: Compound concentration 1000.0 nM
[34] = tested on: Proto-oncogene tyrosine-protein kinase receptor Ret (Homo sapiens), P07949 [V804L]; conditions: Compound concentration 1000.0 nM
[35] = biological target: Dual serine/threonine and tyrosine protein kinase (Homo sapiens) (UniProt Q6XUX3); conditions: Compound concentration 1000.0 nM
[36] = biological target: Rho-associated protein kinase 2 (Homo sapiens) (UniProt O75116); conditions: Compound concentration 1000.0 nM
[37] = biological target: Ribosomal protein S6 kinase alpha-2 (Homo sapiens) (UniProt Q15349); conditions: Compound concentration 1000.0 nM
[38] = biological target: Serine/threonine-protein kinase Sgk1 (Homo sapiens) (UniProt O00141); conditions: Compound concentration 1000.0 nM
[39] = biological target: NUAK family SNF1-like kinase 2 (Homo sapiens) (UniProt Q9H093); conditions: Compound concentration 1000.0 nM
[40] = biological target: NT-3 growth factor receptor (Homo sapiens) (UniProt Q16288); conditions: Compound concentration 1000.0 nM
[41] = biological target: Vascular endothelial growth factor receptor 2 (Homo sapiens) (UniProt P35968); conditions: Compound concentration 1000.0 nM
[42] = biological target: 5-hydroxytryptamine receptor 2B (Homo sapiens) (UniProt P41595); conditions: Compound concentration 10.0 uM
[43] = biological target: D(1B) dopamine receptor (Homo sapiens) (UniProt P21918); conditions: Compound concentration 10.0 uM

Sequence of Translocator protein (Rattus norvegicus) (P16257 whole entry, looked up): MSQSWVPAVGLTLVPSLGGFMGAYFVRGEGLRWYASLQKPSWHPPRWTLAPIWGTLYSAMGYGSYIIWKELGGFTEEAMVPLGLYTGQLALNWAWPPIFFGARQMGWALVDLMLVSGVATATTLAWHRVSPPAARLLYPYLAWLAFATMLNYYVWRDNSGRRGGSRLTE
Sequence of Dual serine/threonine and tyrosine protein kinase (Homo sapiens) (Q6XUX3 whole entry): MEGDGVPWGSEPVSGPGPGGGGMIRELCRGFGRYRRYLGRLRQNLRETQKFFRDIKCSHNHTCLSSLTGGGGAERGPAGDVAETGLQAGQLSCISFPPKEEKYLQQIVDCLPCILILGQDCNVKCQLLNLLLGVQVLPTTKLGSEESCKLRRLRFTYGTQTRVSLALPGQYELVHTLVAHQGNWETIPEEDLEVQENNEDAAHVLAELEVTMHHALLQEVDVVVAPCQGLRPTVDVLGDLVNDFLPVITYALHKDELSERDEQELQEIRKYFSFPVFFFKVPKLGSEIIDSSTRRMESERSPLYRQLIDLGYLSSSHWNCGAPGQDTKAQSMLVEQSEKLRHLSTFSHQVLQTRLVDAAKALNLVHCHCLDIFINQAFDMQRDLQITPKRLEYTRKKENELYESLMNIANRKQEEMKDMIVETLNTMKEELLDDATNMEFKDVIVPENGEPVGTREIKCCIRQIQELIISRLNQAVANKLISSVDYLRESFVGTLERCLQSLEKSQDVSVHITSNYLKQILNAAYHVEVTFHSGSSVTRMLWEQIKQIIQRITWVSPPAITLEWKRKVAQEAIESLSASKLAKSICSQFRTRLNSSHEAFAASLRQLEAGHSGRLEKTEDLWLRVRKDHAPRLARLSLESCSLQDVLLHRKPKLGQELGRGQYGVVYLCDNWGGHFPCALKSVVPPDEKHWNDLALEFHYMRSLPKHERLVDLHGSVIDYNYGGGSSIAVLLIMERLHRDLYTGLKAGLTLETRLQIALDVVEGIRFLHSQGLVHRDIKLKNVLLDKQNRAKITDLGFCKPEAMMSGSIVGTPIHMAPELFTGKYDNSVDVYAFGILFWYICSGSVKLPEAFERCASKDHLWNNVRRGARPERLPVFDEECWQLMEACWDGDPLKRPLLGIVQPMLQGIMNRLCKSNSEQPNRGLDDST
Sequence of NUAK family SNF1-like kinase 2 (Homo sapiens) (Q9H093 whole entry): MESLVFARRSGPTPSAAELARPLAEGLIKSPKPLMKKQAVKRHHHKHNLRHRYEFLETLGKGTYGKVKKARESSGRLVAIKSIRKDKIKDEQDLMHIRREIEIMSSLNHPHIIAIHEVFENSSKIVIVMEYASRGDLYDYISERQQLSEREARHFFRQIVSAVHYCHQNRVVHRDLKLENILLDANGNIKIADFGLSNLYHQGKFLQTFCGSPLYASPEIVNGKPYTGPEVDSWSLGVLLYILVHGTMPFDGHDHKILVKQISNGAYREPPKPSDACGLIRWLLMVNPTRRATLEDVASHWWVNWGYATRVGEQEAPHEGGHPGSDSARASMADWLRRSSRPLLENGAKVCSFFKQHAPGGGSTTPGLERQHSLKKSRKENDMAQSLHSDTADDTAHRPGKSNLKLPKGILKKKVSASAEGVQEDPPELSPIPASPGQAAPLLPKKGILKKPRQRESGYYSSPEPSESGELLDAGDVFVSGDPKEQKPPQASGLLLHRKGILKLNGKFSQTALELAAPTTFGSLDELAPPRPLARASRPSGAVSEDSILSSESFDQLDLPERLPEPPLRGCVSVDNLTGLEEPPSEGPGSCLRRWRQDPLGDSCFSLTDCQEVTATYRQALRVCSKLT
Sequence of 3-phosphoinositide-dependent protein kinase 1 (Homo sapiens) (O15530 whole entry): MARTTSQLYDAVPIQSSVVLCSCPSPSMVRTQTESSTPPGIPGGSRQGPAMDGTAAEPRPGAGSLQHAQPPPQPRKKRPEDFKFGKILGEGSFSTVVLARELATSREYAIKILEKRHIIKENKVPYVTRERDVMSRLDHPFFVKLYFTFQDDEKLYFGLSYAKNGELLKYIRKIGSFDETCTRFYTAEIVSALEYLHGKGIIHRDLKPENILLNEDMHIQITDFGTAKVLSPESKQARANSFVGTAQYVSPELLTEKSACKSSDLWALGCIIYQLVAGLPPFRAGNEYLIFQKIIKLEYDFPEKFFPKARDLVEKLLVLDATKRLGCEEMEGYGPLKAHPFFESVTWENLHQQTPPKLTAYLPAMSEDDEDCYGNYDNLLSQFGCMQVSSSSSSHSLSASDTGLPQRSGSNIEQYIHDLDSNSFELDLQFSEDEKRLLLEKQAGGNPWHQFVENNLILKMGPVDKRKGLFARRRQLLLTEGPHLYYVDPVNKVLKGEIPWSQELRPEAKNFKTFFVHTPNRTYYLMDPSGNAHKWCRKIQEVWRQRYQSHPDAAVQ
Sequence of Epidermal growth factor receptor (Homo sapiens), P00533 [UNDEFINED MUTATION] (P00533 whole entry, looked up, change not shown): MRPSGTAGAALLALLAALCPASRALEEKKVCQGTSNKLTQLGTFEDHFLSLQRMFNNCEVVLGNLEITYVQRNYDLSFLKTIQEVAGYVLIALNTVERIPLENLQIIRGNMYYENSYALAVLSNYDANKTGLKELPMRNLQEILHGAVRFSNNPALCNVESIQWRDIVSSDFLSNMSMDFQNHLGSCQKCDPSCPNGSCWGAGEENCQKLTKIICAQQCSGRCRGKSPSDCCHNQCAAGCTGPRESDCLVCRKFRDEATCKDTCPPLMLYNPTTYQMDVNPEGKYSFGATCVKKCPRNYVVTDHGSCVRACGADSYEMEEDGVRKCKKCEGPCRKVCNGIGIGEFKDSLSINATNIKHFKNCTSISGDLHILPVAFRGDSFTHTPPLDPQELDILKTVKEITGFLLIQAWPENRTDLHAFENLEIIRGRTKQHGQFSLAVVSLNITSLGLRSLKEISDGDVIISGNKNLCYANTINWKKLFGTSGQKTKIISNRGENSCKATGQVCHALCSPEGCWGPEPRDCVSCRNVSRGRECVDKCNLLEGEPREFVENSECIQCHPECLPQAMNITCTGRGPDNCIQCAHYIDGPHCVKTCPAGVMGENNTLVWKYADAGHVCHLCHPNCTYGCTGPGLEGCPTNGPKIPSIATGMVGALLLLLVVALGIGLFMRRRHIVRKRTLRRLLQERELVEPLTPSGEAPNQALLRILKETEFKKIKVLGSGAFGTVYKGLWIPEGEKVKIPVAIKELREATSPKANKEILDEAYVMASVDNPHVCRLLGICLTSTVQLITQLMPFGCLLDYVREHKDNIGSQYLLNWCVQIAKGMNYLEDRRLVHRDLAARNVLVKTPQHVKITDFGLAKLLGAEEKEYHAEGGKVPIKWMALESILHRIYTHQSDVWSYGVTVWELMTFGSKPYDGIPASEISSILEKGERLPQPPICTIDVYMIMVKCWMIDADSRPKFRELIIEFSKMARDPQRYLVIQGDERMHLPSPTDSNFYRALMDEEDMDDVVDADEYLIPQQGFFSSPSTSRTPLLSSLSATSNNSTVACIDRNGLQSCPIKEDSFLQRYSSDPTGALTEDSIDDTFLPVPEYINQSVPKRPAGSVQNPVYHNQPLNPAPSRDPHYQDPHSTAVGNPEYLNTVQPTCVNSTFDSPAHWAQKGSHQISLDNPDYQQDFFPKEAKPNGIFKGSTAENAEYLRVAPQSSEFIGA
Sequence of Serine/threonine-protein kinase SIK3 (Homo sapiens) (Q9Y2K2 whole entry, looked up): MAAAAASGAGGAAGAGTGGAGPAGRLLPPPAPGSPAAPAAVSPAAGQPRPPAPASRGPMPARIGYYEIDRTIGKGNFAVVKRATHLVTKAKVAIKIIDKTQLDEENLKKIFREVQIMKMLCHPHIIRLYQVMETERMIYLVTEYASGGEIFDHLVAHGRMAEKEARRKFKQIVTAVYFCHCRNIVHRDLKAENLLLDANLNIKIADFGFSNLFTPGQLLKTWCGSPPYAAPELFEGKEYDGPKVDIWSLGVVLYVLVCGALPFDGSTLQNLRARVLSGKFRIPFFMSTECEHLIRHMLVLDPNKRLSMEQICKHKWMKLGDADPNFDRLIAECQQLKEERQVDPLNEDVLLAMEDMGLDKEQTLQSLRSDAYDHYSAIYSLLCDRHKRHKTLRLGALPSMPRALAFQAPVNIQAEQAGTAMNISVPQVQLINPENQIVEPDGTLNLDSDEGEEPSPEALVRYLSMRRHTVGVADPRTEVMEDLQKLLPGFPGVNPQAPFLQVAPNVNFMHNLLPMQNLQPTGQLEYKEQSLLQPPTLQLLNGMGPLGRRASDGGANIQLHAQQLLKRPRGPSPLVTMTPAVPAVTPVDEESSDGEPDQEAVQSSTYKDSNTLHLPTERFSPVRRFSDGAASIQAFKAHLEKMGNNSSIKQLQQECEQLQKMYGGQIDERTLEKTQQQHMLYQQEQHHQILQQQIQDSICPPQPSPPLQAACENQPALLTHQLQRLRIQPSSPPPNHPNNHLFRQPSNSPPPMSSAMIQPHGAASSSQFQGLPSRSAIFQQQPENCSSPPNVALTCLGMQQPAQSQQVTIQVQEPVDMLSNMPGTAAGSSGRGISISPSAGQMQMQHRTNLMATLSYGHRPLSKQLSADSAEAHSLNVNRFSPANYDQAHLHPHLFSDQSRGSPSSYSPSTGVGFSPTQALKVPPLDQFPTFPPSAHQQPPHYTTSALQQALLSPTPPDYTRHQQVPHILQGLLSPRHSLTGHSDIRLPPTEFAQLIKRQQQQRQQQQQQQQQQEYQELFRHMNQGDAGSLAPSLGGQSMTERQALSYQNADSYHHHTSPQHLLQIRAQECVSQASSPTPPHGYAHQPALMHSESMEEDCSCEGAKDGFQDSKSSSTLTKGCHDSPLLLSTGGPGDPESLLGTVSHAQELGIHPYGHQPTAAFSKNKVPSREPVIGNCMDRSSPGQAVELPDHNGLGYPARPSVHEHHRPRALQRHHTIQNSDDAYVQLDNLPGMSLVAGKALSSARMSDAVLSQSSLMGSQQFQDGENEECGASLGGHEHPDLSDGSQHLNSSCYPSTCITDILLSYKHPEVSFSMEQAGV

Structure (SMILES): O=C(NS(=O)(=O)c1ccc(NCC2CCOCC2)c([N+](=O)[O-])c1)c1ccc(N2CCN(Cc3ccc(C(F)(F)F)cc3-c3ccc(Cl)cc3)CC2)cc1Oc1cnc2[nH]ccc2c1 [A-1210227]
- EC50 (NCI-H146): > 5 µM (not active)
- % Inhibition of Control Specific Binding (Mean n=2) [1]: 10.5%
- % Inhibition of Control Specific Binding (Mean n=2) [2]: 36%
- % Inhibition of Control Specific Binding (Mean n=2) [3]: -57.7%
- % Inhibition of Control Specific Binding (Mean n=2) [4]: -7.6%
- % Inhibition of Control Specific Binding (Mean n=2) [5]: 11.2%
- % Inhibition of Control Specific Binding (Mean n=2) [6]: 24%
- % Inhibition of Control Specific Binding (Mean n=2) [7]: -4.9%
- % Inhibition of Control Specific Binding (Mean n=2) [8]: -10.3%
- residual activity [9]: 91%
- residual activity [10]: 94%
- residual activity [11]: 94%
- residual activity [12]: 87%
- residual activity [13]: 100%
- residual activity [14]: 100%
- residual activity [15]: 75%
- residual activity [16]: 93%
- residual activity [17]: 100%
- residual activity [18]: 84%
- residual activity [19]: 80%
- residual activity [20]: 98%
- residual activity [21]: 84%
- residual activity [22]: 89%
- residual activity [23]: 78%
- residual activity [24]: 100%
- residual activity [25]: 85%
- residual activity [26]: 100%
- residual activity [27]: 75%
- residual activity [28]: 96%
- residual activity [29]: 93%
- residual activity [30]: 70%
- residual activity [31]: 100%
- residual activity [32]: 100%
- residual activity [33]: 76%
- residual activity [34]: 100%
- residual activity [35]: 94%
- residual activity [36]: 100%
- residual activity [37]: 100%
- residual activity [38]: 88%
- residual activity [39]: 88%
- residual activity [40]: 100%
- residual activity [41]: 100%
- inhibition [42]: -2.34%
- inhibition [43]: 9.7%

Structure (SMILES): CO[C@H]1CC[C@H](CNc2ccc(S(=O)(=O)NC(=O)c3ccc(N4CCN(CC5=C(c6ccc(Cl)cc6)CC(C)(C)CC5)CC4)cc3Oc3cnc4[nH]ccc4c3)cc2[N+](=O)[O-])CC1 [A-1211212]
- EC50 (NCI-H146): > 5 µM (not active)
- % Inhibition of Control Specific Binding (Mean n=2) [1]: -1%
- % Inhibition of Control Specific Binding (Mean n=2) [2]: 44.9%
- % Inhibition of Control Specific Binding (Mean n=2) [3]: -8%
- % Inhibition of Control Specific Binding (Mean n=2) [4]: -3.3%
- % Inhibition of Control Specific Binding (Mean n=2) [5]: -2.2%
- % Inhibition of Control Specific Binding (Mean n=2) [6]: 17.3%
- % Inhibition of Control Specific Binding (Mean n=2) [7]: -1%
- % Inhibition of Control Specific Binding (Mean n=2) [8]: -2.6%
- residual activity [9]: 100%
- residual activity [10]: 92%
- residual activity [11]: 100%
- residual activity [12]: 68%
- residual activity [13]: 94%
- residual activity [14]: 90%
- residual activity [15]: 91%
- residual activity [16]: 84%
- residual activity [17]: 100%
- residual activity [18]: 84%
- residual activity [19]: 100%
- residual activity [20]: 69%
- residual activity [21]: 68%
- residual activity [22]: 91%
- residual activity [23]: 82%
- residual activity [24]: 68%
- residual activity [25]: 83%
- residual activity [26]: 96%
- residual activity [27]: 66%
- residual activity [28]: 56%
- residual activity [29]: 100%
- residual activity [30]: 72%
- residual activity [31]: 85%
- residual activity [32]: 90%
- residual activity [33]: 89%
- residual activity [34]: 88%
- residual activity [35]: 100%
- residual activity [36]: 100%
- residual activity [37]: 71%
- residual activity [38]: 100%
- residual activity [39]: 95%
- residual activity [40]: 100%
- residual activity [41]: 100%
- inhibition [42]: 3.54%
- inhibition [43]: 34.1%
